Structures can show the parent of a compound that is named as a salt.

For one test, the target named is recombinant human cGAS (Homo sapiens (Human), UniProt Q8N884). Briefly: In vitro inhibition assay of cGAS activity (cGAMP production, RapidFire mass spectrometry). Type of test: biochemical. The settings on record: 10 nM recombinant human cGAS, 60 nM 75-bp dsDNA, ATP, GTP, room temperature 3 hours, read-out: IC50 (μM), In vitro inhibition assay for Compounds 1-94. Here is the method: Expression and Purification of Recombinant cGAS Protein: Insert cDNA encoding full-length of human cGAS into a modified bacterial expression vector containing an in-frame His6-tag. Induce the E. coli strain BL21(DE3) harboring the plasmid with 1 mM IPTG (Isopropyl β-D-1-thiogalactopyranoside) at 18° C. overnight. Purify the His6-tagged cGAS protein over HISpur Ni-NTA resin in the presence of benzonase and RNase followed by Superdex 200 size exclusion chromatography with storage buffer (50 mM Tris-HCl pH 7.5, 300 mM NaCl, 1 mM DTT, 10% glycerol).
Sequence of recombinant human cGAS (Q8N884 whole entry): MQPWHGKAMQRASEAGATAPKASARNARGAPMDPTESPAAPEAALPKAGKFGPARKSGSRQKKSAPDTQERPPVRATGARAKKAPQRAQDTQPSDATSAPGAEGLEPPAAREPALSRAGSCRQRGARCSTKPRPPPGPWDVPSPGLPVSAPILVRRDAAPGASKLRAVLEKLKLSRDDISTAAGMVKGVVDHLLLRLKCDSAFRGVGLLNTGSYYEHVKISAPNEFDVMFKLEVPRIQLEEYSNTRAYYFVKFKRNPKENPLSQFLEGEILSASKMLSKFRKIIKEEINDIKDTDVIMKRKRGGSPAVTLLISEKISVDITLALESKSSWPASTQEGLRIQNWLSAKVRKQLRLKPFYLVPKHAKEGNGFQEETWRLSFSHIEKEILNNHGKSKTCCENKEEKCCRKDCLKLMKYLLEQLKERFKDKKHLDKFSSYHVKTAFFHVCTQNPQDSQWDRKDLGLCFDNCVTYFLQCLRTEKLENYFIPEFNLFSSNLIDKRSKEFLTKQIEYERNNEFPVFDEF
In vitro inhibition assay of cGAS activity: Add a 5 μL mixture containing 10 mM Tris-Cl pH 7.5, 50 mM NaCl, 5 mM MgCl2, 1 mM DTT, 0.01% Triton X-100, 60 nM 75-bp dsDNA, […], 50 μM GTP, 10 nM of recombinant human cGAS, and serial dilutions of a test compound in DMSO to a 384-well plate and incubate at room temperature for 3 hours. Quench the reaction by the addition of 100 μL of stop solution containing 0.1% formic acid and 0.1 μM internal standard (3′3′-difluoro cGAMP). Measure the amount of cGAMP produced by RapidFire 365 mass spectrometry and evaluate inhibitory effect of a compound by plotting percent specific inhibition of cGAMP production against log concentration of the test compound. Calculate IC50 values using a 4-parameter non-linear logistic equation (y=(S0+((SInf−S0)/(1+((qAC50/x)^nHill))))).
As for `CN1CCOCC1CC(=O)N1CCn2c(c(-c3cn[nH]c3)c3ccc(Cl)c(Cl)c32)C1` (stereo not drawn) [Example 81, 1-[6,7-Dichloro-10-(1H-pyrazol-4-yl)-3,4-dihydro-1H-pyrazino[1,2-a]indol-2-yl]-2-(4-methylmorpholin-3-yl)ethanone], the 50% inhibitory concentration (IC50) was determined as 0.0223 µM.

Take `Cc1[nH]c2c(Cl)c(Cl)ccc2c1-c1cn[nH]c1` [Example 2, 6,7-Dichloro-2-methyl-3-(1H-pyrazol-4-yl)-1H-indole]: the IC50 came to 0.0557 µM.

Consider `CN1CCOC(C(=O)N2CCn3c(c(-c4cn[nH]c4)c4ccc(Cl)c(Cl)c43)C2)C1` (stereo not drawn) [Example 50, [6,7-dichloro-10-(1H-pyrazol-4-yl)-3,4-dihydro-1H-pyrazino[1,2-a]indol-2-yl]-(4-methylmorpholin-2-yl)methanone], for which the IC50 amounted to 0.04 µM.

For the compound `COCc1nnc(CN2CCn3c(c(-c4cn[nH]c4)c4ccc(Cl)c(Cl)c43)C2)o1` [Example 47, 2-[[6,7-dichloro-10-(1H-pyrazol-4-yl)-3,4-dihydro-1H-pyrazino[1,2-a]indol-2-yl]methyl]-5-(methoxymethyl)-1,3,4-oxadiazole formic acid salt], the concentration for half-maximal inhibition (IC50) was found to be 0.0333 µM.

In the case of `Clc1c(Br)ccc2c(-c3cn[nH]c3)c[nH]c12` [Example 30, 6-bromo-7-chloro-3-(1H-pyrazol-4-yl)-1H-indole], the IC50 came out at 0.034 µM.

Regarding `O=C1c2c(-c3cn[nH]c3)c3ccc(Cl)c(Cl)c3n2CCN1CCO` [Example 32, 6,7-Dichloro-2-(2-hydroxyethyl)-10-(1H-pyrazol-4-yl)-3,4-dihydropyrazino[1,2-a]indol-1-one], the IC50 amounted to 0.0411 µM.

Turning to `O=C(CO)N1CCn2c(c(-c3cn[nH]c3)c3ccc(Cl)c(Cl)c32)C1` [Example 53, 1-[6,7-dichloro-10-(1H-pyrazol-4-yl)-3,4-dihydro-1H-pyrazino[1,2-a]indol-2-yl]-2-hydroxy-ethanone], the IC50 stood at 0.0268 µM.

Consider `Clc1ccc2c(-c3cn[nH]c3)cn(-c3cn[nH]n3)c2c1Cl` [Example 34, 6,7-Dichloro-3-(1H-pyrazol-4-yl)-1-(2H-triazol-4-yl)indole], for which the IC50 amounted to 0.0691 µM.

On to `NC(=O)COc1cc(Cl)c(F)c2[nH]cc(-c3cn[nH]c3)c12` [Example 71, 2-[[6-Chloro-7-fluoro-3-(1H-pyrazol-4-yl)-1H-indol-4-yl]oxy] acetamide], for which the IC50 was determined as 0.0463 µM.

Consider `NC(=O)COc1cc(Cl)c(Cl)c2[nH]cc(-c3cn[nH]c3)c12` [Example 59, 2-[[6,7-Dichloro-3-(1H-pyrazol-4-yl)-1H-indol-4-yl]oxy]acetamide], for which the IC50 is 0.0242 µM.

`CS(=O)(=O)N1CCn2c(c(-c3cn[nH]c3)c3ccc(Cl)c(Cl)c32)C1` [Example 41, 6,7-dichloro-2-methylsulfonyl-10-(1H-pyrazol-4-yl)-3,4-dihydro-1H-pyrazino[1,2-a]indole]: the half-inhibitory concentration (IC50) came out at 0.0328 µM.

On to `N#CCNc1cc(Cl)c(Cl)c2c1c(-c1cn[nH]c1)c1n2CCN(C(=O)CO)C1` [Example 92, 2-[[6,7-Dichloro-2-(2-hydroxyacetyl)-10-(1H-pyrazol-4-yl)-3,4-dihydro-1H-pyrazino[1,2-a]indol-9-yl]amino]acetonitrile], for which the IC50 is 0.0287 µM.

For `CS(=O)(=O)NCCn1cc(-c2cn[nH]c2)c2c(OCC#N)cc(Cl)c(Cl)c21` [Example 84, N-[2-[6,7-Dichloro-4-(cyanomethoxy)-3-(1H-pyrazol-4-yl)indol-1-yl]ethyl]methanesulfonamide], the IC50 turned out to be 0.0815 µM.

Take `Clc1ccc2c(-c3cn[nH]c3)c3n(c2c1Cl)CCC(c1nn[nH]n1)C3` (stereo not drawn) [Example 69, 3,4-Dichloro-10-(1H-pyrazol-4-yl)-8-(1H-tetrazol-5-yl)-6,7,8,9-tetrahydropyrido[1,2-a]indole]: the half-maximal inhibitory concentration (IC50) turned out to be 0.0449 µM.

Consider `O=C1CCCN1C1CCc2c(-c3cn[nH]c3)c3ccc(Cl)c(Cl)c3n2C1` (stereo not drawn) [Example 74, 1-[3,4-Dichloro-10-(1H-pyrazol-4-yl)-6,7,8,9-tetrahydropyrido[1,2-a]indol-7-yl]pyrrolidin-2-one], for which the concentration for half-maximal inhibition (IC50) is 0.0847 µM.

Take `OC1CCCc2c(-c3cn[nH]c3)c3ccc(Cl)c(Cl)c3n2C1` (stereo not drawn) [Example 78, 3,4-Dichloro-11-(1H-pyrazol-4-yl)-7,8,9,10-tetrahydro-6H-azepino[1,2-a]indol-7-ol]: the IC50 stood at 0.0427 µM.

Regarding `O=C(O)C1CCCn2c(c(-c3cn[nH]c3)c3ccc(Cl)c(Cl)c32)C1` (single isomer, unassigned) [Example 24, 3,4-Dichloro-11-(1H-pyrazol-4-yl)-7,8,9,10-tetrahydro-6H-azepino[1,2-a]indole-9-carboxylic acid], the IC50 came to 0.0834 µM.

Turning to `CNC(=O)N1CCn2c(c(-c3cn[nH]c3)c3ccc(Cl)c(Cl)c32)C1` [Example 39, 6,7-dichloro-N-methyl-10-(1H-pyrazol-4-yl)-3,4-dihydro-1H-pyrazino[1,2-a]indole-2-carboxamide], the concentration for half-maximal inhibition (IC50) turned out to be 0.0392 µM.

`CN1Cc2c(-c3cn[nH]c3)c3ccc(Cl)c(Cl)c3n2CC1=O` [Example 75, 6,7-Dichloro-2-methyl-10-(1H-pyrazol-4-yl)-1,2-dihydropyrazino[1,2-a]indol-3(4H)-one]: the 50% inhibitory concentration (IC50) was 0.045 µM.

As for `CS(=O)(=O)NC1CCc2c(-c3cn[nH]c3)c3ccc(Cl)c(Cl)c3n2C1` (single isomer, unassigned) [Example 23, N-[3,4-Dichloro-10-(1H-pyrazol-4-yl)-6,7,8,9-tetrahydropyrido[1,2-a]indol-7-yl]methanesulfonamide], the half-maximal inhibitory concentration (IC50) is 0.0887 µM.

Turning to `O=C(O)Cn1cc(-n2cc(-c3cn[nH]c3)c3ccc(Cl)c(Cl)c32)cn1` [Example 36, 2-[4-[6,7-Dichloro-3-(1H-pyrazol-4-yl)indol-1-yl]pyrazol-1-yl]acetic acid], the IC50 is 0.0535 µM.

For the compound `Cc1c(-c2cn[nH]c2)c2ccc(Cl)c(Cl)c2n1C` [Example 3, 6,7-Dichloro-1,2-dimethyl-3-(1H-pyrazol-4-yl)indole], the IC50 was determined as 0.0614 µM.

In the case of `CCOc1cc(Cl)c(Cl)c2c1c(-c1cn[nH]c1)c1n2CCNC1` [Example 90, 6,7-Dichloro-9-ethoxy-10-(1H-pyrazol-4-yl)-1,2,3,4-tetrahydropyrazino[1,2-a]indole], the half-inhibitory concentration (IC50) worked out at 0.0587 µM.

Still in this test, the particulars now being: 10 nM recombinant human cGAS, 60 nM 75-bp dsDNA, ATP, GTP, room temperature 3 hours, read-out: IC50 (μM), In vitro inhibition assay for Compounds 95-348.
On to `O=C(CCn1ccnc1)N1CCn2c(c(-c3cn[nH]c3)c3ccc(Cl)c(Cl)c32)C1` [Example 328, 1-(6,7-Dichloro-10-(1H-pyrazol-4-yl)-3,4-dihydropyrazino[1,2-a]indol-2(1H)-yl)-3-(1H-imidazol-1-yl)propan-1-one], for which the half-maximal inhibitory concentration (IC50) was determined as 0.0636 µM.

Consider `CC(=O)N1CCOCC1C(=O)N1CCn2c(c(-c3cn[nH]c3)c3ccc(Cl)c(Cl)c32)C1` (stereo not drawn) [Example 109, 1-(3-(6,7-Dichloro-10-(1H-pyrazol-4-yl)-1,2,3,4-tetrahydropyrazino[1,2-a]indole-2-carbonyl)morpholino)ethan-1-one], for which the 50% inhibitory concentration (IC50) was 0.0698 µM.

Regarding `O=C1Cn2c(c(-c3cn[nH]c3)c3ccc(Cl)c(Cl)c32)CC(CO)N1` (stereo not drawn) [Example 101, 7,8-Dichloro-2-(hydroxymethyl)-11-(1H-pyrazol-4-yl)-2,3-dihydro-1H-[1,4]diazepino[1,7-a]indol-4(5H)-one], the IC50 stood at 0.0705 µM.

`COCC(=O)NC(C)C(=O)N1CCn2c(c(-c3cn[nH]c3)c3ccc(Cl)c(Cl)c32)C1` (stereo not drawn) [Example 333, N-(1-(6,7-Dichloro-10-(1H-pyrazol-4-yl)-3,4-dihydropyrazino[1,2-a]indol-2(1H)-yl)-1-oxopropan-2-yl)-2-methoxyacetamide]: the half-inhibitory concentration (IC50) came out at 0.0918 µM.

The record behind these values is patent US20230391786A1, “cGAS INHIBITORS” (Eli Lilly and Company, priority 2022, published 2023).
